pEC50, pIC50: −log10 of the molar value. Where two headings read alike, the source gives them in different places.
Key:
[1] = test system: RSV strain A2; test: RSV HEp-2 EC50 (infectious cytopathic cell protection assay); assay type: cell-based, RSV strain A2; HEp-2 cells; settings: read-out: RSV Hep-2 EC50
Procedure, shortened: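 HEp-2 cells (50,000/mL) infected with titered RSV stock, added onto compound in 3-fold serial dilutions; 4 days at 37 °C. Cell viability read by CellTiter-Glo luminescence; percent inhibition of virus-induced cytopathic effect derived from remaining viability against 0% and 100% inhibition controls.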

[2] = HEp-2 CC50 (cytotoxicity in uninfected HEp-2 cells); assay type: cell-based; settings: human, CellTiter Glo
Procedure: (§1) Instead, an uninfected cell mixture at the same density is added at 20 uL/well to plates containing prediluted compounds, also at 100 nL/sample. Assay plates are then incubated for 4 days followed by a cell viability test using the same CellTiter Glo reagent addition and measurement of luminescent readouts. Untreated cell and cells treated at 2 μM puromycin (Sigma, St. Louis, MO) serve as 100% and 0% cell viability control, respectively.

[3] = test system: RSV A2; test: RSV NHBE EC50 (RSV A2 antiviral assay in NHBE cells); assay type: cell-based, RSV A2; normal human bronchial epithelial (NHBE) cells; settings: human respiratory syncytial virus, 96 h; NHBE cells infected with RSV A2, 4 days, Cell-Titer Glo
Procedure: Example 88. RSV NHBE EC50
Normal human bronchial epithelial (NHBE) cells were purchased from Lonza (Walkersville, MD, Cat #CC-2540) and cultured in Bronchial Epithelial Growth Media (BEGM) (Lonza, Walkersville, MID, Cat 9 CC-3170). The cells were passaged 1-2 times per week to maintain<80% confluency. The NHBE cells were discarded after 6 passages in culture.
To conduct the RSV A2 antiviral assay, NHBE cells were plated in 96-well plates at a density of 7,500 cells per well in BEGM and allowed to attach overnight at 37° C. Following attachment, 100 μL of cell culture media was removed and 3-fold serially diluted compound was added using a Hewlett-Packard D300 Digital Dispenser. The final concentration of DMSO was normalized to 0.05%. Following compound addition, the NHBE cells were infected by the addition of 100 μL of RSV A2 at a titer of […] tissue culture infectious doses/mL in BEGM and then incubated at 37° C. for 4 days. The NHBE cells were then allowed to equilibrate to 25° C. and cell viability was determined by removing 100 μL of culture medium and adding 100 μL of Cell-Titer Glo viability reagent. The mixtures were incubated for 10 minutes at 25° C., and the luminescence signal was quantified on an Envision luminescence plate reader.

[4] = target: T1, DENV2 NS5 (Dengue virus type 2, UniProt P14340); test: DENV Pol IC50 (DENV2-NS5 polymerase assay); assay type: biochemical; settings: 100 nM DENV2 NS5, sshRNA template, 90 minutes at 30° C.
T1 construct: His tag (pET28b, thrombin-cleavable) (N); made in house; host or cells: E. coli BL21 (DE3)
Procedure: A 244 nucleotide secondary structureless heteropolymeric RNA (sshRNA) with sequence 5′-(UCAG)20(UCCAAG)14(UCAG)20-3′ (SEQ ID NO: 1) is used as the template with 5′-CUG-3′ primer in the DENV2-NS5 polymerase assay. Six two-fold dilutions of compounds starting from 200 nM and no inhibitor control are plated in 96-well plates. 100 nM DENV2 NS5 is preincubated for 5 minutes at room temperature in a reaction mixture containing 40 mM Tris-HCl (pH 7.5), 10 mM NaCl, 3 mM DTT, 0.2 unit/μL RNasin Plus RNase Inhibitor, 200 ng/μL sshRNA, 20 μM CUG and 2 mM MgCl2. Enzyme mix is added to compound dilutions and reactions initiated by the addition of a mixture containing 20 μM of three natural NTP plus 2 μM of analog:base matched competing natural NTP containing 1:100 α-33P-NTP. After 90 minutes at 30° C., 5 μL of the reaction mixtures are spotted on DE81 anion exchange paper. Filter papers are washed three times with Na2HPO4 (125 mM, pH 9) for 5 minutes, rinsed with water and ethanol, then air-dried and exposed to phosphorimager. Synthesized RNA is quantified using Typhoon Trio Imager and Image Quant TL Software and reaction rates are calculated by linear regression using GraphPad Prism 5.0. IC50 values are calculated in Prism by non-linear regression analysis using the dose-response (variable slope) equation (four-parameter logistic equation): Y=Bottom+(Top-Bottom)/(1+10^((Log IC50−X)*HillSlope)).

[5] = test system: Dengue 2, New Guinea strain (NGC); test: DENV-2 moDC EC50 (qPCR of viral RNA in infected moDCs); assay type: cell-based, New Guinea strain (NGC); human moDCs; settings: human moDCs infected with Dengue 2 NGC, MOI=0.1, 48 hours
Procedure, shortened: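 moDCs differentiated 7 days from CD14+ monocytes with GM-CSF/IL-4, infected with Vero-derived DENV-2 NGC at MOI 0.1 for 2 h at 37 °C, then plated in triplicate with graded compound doses (0.25% DMSO). At 48 h viral RNA quantified by duplex TaqMan qPCR against GAPDH; EC50 normalized to positive and no-compound controls.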

[6] = moDC CC50 (CellTiter Glo viability); assay type: cell-based, Human; settings: human, uninfected moDCs
[7] = test system: Dengue serotype 2 New Guinea C (NGC) strain; test: DENV-2 Huh-7 EC50 (qPCR of viral RNA in infected Huh7 cells); assay type: cell-based; settings: MOI=0.1, 48 hours
Procedure, shortened: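 Huh7 cells were infected 2 h at 37 °C with DENV-2 NGC at MOI 0.1, then plated with graded compound doses (0.25% DMSO) in triplicate for 48 h. Viral RNA was quantified by duplex TaqMan qPCR against GAPDH. EC50 was normalized to positive and no-compound controls.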

[8] = Huh-7 CC50 (CellTiter Glo viability); assay type: cell-based, Human; settings: human, Huh7 hepatocarcinoma cells
Procedure, shortened: (§2)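 Huh7 cells in 10% FCS DMEM plated at 1-2×10^4 per well in triplicate with graded compound doses, 0.25% DMSO throughout. Viability after 48 hours by CellTiter Glo luminescence, normalized to no-compound and no-cell controls; CC50 from curve fitting.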

[9] = test system: Human monocyte-derived dendritic cells (moDCs); test: moDC CC50 (CellTiter Glo viability); assay type: cell-based; settings: uninfected moDCs, 48 hours
[10] = test system: Human hepatocarcinoma 7 (Huh7) cells; test: Huh-7 CC50 (CellTiter Glo viability); assay type: cell-based; settings: 48 hours
Procedure, shortened: as §2

[11] = test system: uninfected HEp-2 cells; test: HEp-2 CC50 (cytotoxicity in uninfected HEp-2 cells); assay type: cell-based; settings: 4 days, CellTiter Glo
Procedure: as §1

[12] = human respiratory syncytial virus, HEp-2, 96 h
[13] = Dengue virus, DENV2, Huh-7, Huh7 cells infected with Dengue serotype 2 NGC
[14] = Huh7 cells infected with Dengue serotype 2 NGC
[15] = HEp-2 cells infected with RSV A2, 4 days, Cell TiterGlo

SMILES: Nc1ncnn2c([C@@H]3O[C@@](CO)(CF)[C@@H](O)[C@H]3O)ccc12 [Intermediate 5, (2R,3S,4R,5S)-5-(4-aminopyrrolo[2,1-f][1,2,4]triazin-7-yl)-2-(fluoromethyl)-2-(hydroxymethyl)tetrahydrofuran-3,4-diol]
- pEC50 [1, 12]: < 4.30
- CC50 at 4 days [2]: > 50000 nM
- pEC50 [3]: < 5.32

SMILES: Nc1ncnn2c([C@@H]3O[C@](CCl)(COP(=O)(O)OP(=O)(O)OP(=O)(O)O)[C@@H](O)[C@H]3O)ccc12 [Comp. Ex. 2, ((2R,3S,4R,5S)-5-(4-aminopyrrolo[2,1-f][1,2,4]triazin-7-yl)-2-(chloromethyl)-3,4-dihydroxytetrahydrofuran-2-yl)methyl tetrahydrogen triphosphate, reference compound]
- pIC50 [4]: 5.15

SMILES: COC(=O)[C@H](C)NP(=O)(OC[C@@]1(CF)O[C@@H](c2ccc3c(N)ncnn23)[C@H](OC(=O)C(C)C)[C@@H]1OC(=O)C(C)C)Oc1ccccc1 (single isomer, unassigned) [Example 11]
- pEC50 ([5]; Dengue virus): 6.42
- CC50 at 48 h [6]: 16100 nM
- pEC50 [7, 13]: 6.23
- CC50 at 48 h [8]: > 18800 nM
- pEC50 [1, 12]: 5.69
- CC50 at 4 days [2]: 12600 nM
- pEC50 [3]: 6.44

SMILES: CCOC(=O)[C@H](C)NP(=O)(OC[C@@]1(CF)O[C@@H](c2ccc3c(N)ncnn23)[C@H](OC(=O)C(C)C)[C@@H]1OC(=O)C(C)C)Oc1ccccc1 (stereo partly drawn) [Example 24, (2R,3S,4S,5S)-5-(4-aminopyrrolo[2,1-f][1,2,4]triazin-7-yl)-2-((((((S)-1-ethoxy-1-oxopropan-2-yl)amino)(phenoxy)phosphoryl)oxy)methyl)-2-(fluoromethyl) tetrahydrofuran-3,4-diyl bis(2-methylpropanoate)]
- pEC50 [5]: 6.59
- CC50 [9]: 18600 nM
- pEC50 [7, 14]: 5.81
- CC50 [10]: 16000 nM
- pEC50 [1, 15]: 5.74
- CC50 [11]: 16600 nM

SMILES: COC(=O)[C@H](C)NP(=O)(OC[C@@]1(CF)O[C@@H](c2ccc3c(N)ncnn23)[C@H](O)[C@@H]1O)Oc1ccccc1 (stereo partly drawn) [Example 10, methyl ((((2R,3S,4R,5S)-5-(4-aminopyrrolo[2,1-f][1,2,4]triazin-7-yl)-2-(fluoromethyl)-3,4-dihydroxytetrahydrofuran-2-yl)methoxy)(phenoxy)phosphoryl)-L-alaninate]
- pEC50 ([5]; Dengue virus): 6.17
- CC50 at 48 h [6]: > 19500 nM
- pEC50 [7, 13]: 6.07
- CC50 at 48 h [8]: > 25000 nM
- pEC50 [1, 12]: 6.04
- CC50 at 4 days [2]: > 50000 nM
- pEC50 [3]: 5.68

SMILES: CCC(CC)COC(=O)[C@H](C)N[P@](=O)(OC[C@@]1(CF)O[C@@H](c2ccc3c(N)ncnn23)[C@H](O)[C@@H]1O)Oc1ccccc1 [Example 1, 2-ethylbutyl ((S)-(((2R,3S,4R,5S)-5-(4-aminopyrrolo[2,1-f][1,2,4]triazin-7-yl)-2-(fluoromethyl)-3,4-dihydroxytetrahydrofuran-2-yl)methoxy)(phenoxy)phosphoryl)-L-alaninate]
- pEC50 ([5]; Dengue virus): 6.93
- CC50 at 48 h [6]: > 5890 nM
- pEC50 [7, 13]: 6.82
- CC50 at 48 h [8]: 18000 nM
- pEC50 [1, 12]: 6.92
- CC50 at 4 days [2]: > 50000 nM
- pEC50 [3]: 6.23

SMILES: Nc1ncnn2c([C@@H]3O[C@](CF)(COP(=O)(O)OP(=O)(O)OP(=O)(O)O)[C@@H](O)[C@H]3O)ccc12 [Example 2, sodium ((2R,3S,4R,5S)-5-(4-aminopyrrolo[2,1-f][1,2,4]triazin-7-yl)-2-(fluoromethyl)-3,4-dihydroxytetrahydrofuran-2-yl)methyl triphosphate]
- pIC50 [4]: 6.13

SMILES: CCC(=O)O[C@H]1[C@H](c2ccc3c(N)ncnn23)O[C@](CF)(COP(=O)(N[C@@H](C)C(=O)OC2CCCCC2)Oc2ccccc2)[C@H]1OC(=O)CC (stereo partly drawn) [Example 16, (2R,3S,4S,5S)-5-(4-aminopyrrolo[2,1-f][1,2,4]triazin-7-yl)-2-((((((S)-1-(cyclohexyloxy)-1-oxopropan-2-yl)amino)(Phenoxy)phosphoryl)oxy)methyl)-2-(fluoromethyl)tetrahydrofuran-3,4-diyl dipropionate]
- pEC50 [5]: 6.67
- CC50 [9]: 3800 nM
- pEC50 [7, 14]: 6.13
- CC50 [10]: 13400 nM
- pEC50 [1, 15]: 5.96
- CC50 [11]: 33000 nM
